Results from the NIST ThermoML archive (doi:10.1007/s10765-008-0506-x).
± gives the expanded uncertainty stated by the source.

How the values were obtained:
[1] = xn = mol fraction of the nth substance listed; conditions: Liquid, Hot wire method
[2] = 294.2 K, Liquid, Hot wire method

CCCCn1cc[n+](C)c1.F[B-](F)(F)F [1-butyl-3-methylimidazolium tetrafluoroborate] + O=C=O
thermal conductivity [W/m/K], [1]
Conditions | 294.2 K | 314.3 K | 334.3 K
10000 kPa, x2 = 0.169 | 0.173 ± 0.005 | 0.173 ± 0.005 | 0.173 ± 0.005
10000 kPa, x2 = 0.308 | 0.17 ± 0.005 | 0.169 ± 0.005 | 0.169 ± 0.005
10000 kPa, x2 = 0.422 | 0.171 ± 0.005 | 0.17 ± 0.005 | 0.169 ± 0.005
20000 kPa, x2 = 0.169 | 0.174 ± 0.005 | 0.175 ± 0.005 | 0.175 ± 0.005
20000 kPa, x2 = 0.308 | 0.172 ± 0.005 | 0.17 ± 0.005 | 0.17 ± 0.005
20000 kPa, x2 = 0.422 | 0.171 ± 0.005 | 0.17 ± 0.005 | 0.169 ± 0.005

Cn1ccnc1 [1-methylimidazole] + O=C=O
thermal conductivity [W/m/K], [1], 294.2 K
Conditions | x2 = 0 | x2 = 0.157 | x2 = 0.261 | x2 = 0.337 | x2 = 0.43
10000 kPa | 0.194 ± 0.006 | 0.187 ± 0.006 | 0.184 ± 0.006 | 0.18 ± 0.005 | 0.176 ± 0.005
20000 kPa | 0.196 ± 0.006 | 0.19 ± 0.006 | 0.187 ± 0.006 | 0.184 ± 0.006 | 0.18 ± 0.005

Cn1ccnc1 [1-methylimidazole]
[2]
Conditions | thermal conductivity [W/m/K]
10000 kPa | 0.194 ± 0.006
20000 kPa | 0.196 ± 0.006

CCCCn1cc[n+](C)c1.F[P-](F)(F)(F)(F)F [1-butyl-3-methylimidazolium hexafluorophosphate] + O=C=O
thermal conductivity [W/m/K], [1]
Conditions | x2 = 0.108 | x2 = 0.22 | x2 = 0.328 | x2 = 0.42
294.4 K, 10000 kPa | 0.148 ± 0.005 | 0.149 ± 0.005 | 0.15 ± 0.005 | 0.148 ± 0.005
294.4 K, 20000 kPa | 0.15 ± 0.005 | 0.151 ± 0.005 | 0.152 ± 0.005 | 0.149 ± 0.005
314.5 K, 10000 kPa | 0.149 ± 0.005 | 0.149 ± 0.005 | 0.152 ± 0.005 | 0.148 ± 0.005
314.5 K, 20000 kPa | 0.151 ± 0.005 | 0.152 ± 0.005 | 0.153 ± 0.005 | 0.148 ± 0.005
334.2 K, 10000 kPa | 0.148 ± 0.005 | 0.15 ± 0.005 | 0.15 ± 0.005 | 0.148 ± 0.005
334.2 K, 20000 kPa | 0.151 ± 0.005 | 0.152 ± 0.005 | 0.151 ± 0.005 | 0.149 ± 0.005
